PubChem BioAssay (NCI)
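Step 1: Grow cells in 96-well plates. Step 2: Expose to compound for 48 hours at 5 concentrations. Step 3: Interpolate endpoints linearly; if unreached, use highest concentration. GI50 = concentration required for 50% inhibition of growth. At the TGI there is no net growth.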

Key:
Assay in all cases: NCI-60 cell line screen, 48 h
HCT-116 colon = system: HCT-116 colon
SF-268 CNS = system: SF-268 CNS
UACC-62 melanoma = system: UACC-62 melanoma
OVCAR-5 ovarian = system: OVCAR-5 ovarian
COLO 205 colon = system: COLO 205 colon
SK-OV-3 ovarian = system: SK-OV-3 ovarian
HCT-15 colon = system: HCT-15 colon
CAKI-1 renal = system: CAKI-1 renal
RXF 393 renal = system: RXF 393 renal
LOX IMVI melanoma = system: LOX IMVI melanoma

Structure (SMILES)	TGI (HCT-116 colon) [µM]	TGI (SF-268 CNS) [µM]	TGI (UACC-62 melanoma) [µM]	TGI (OVCAR-5 ovarian) [µM]	TGI (COLO 205 colon) [µM]	TGI (SK-OV-3 ovarian) [µM]	TGI (HCT-15 colon) [µM]	TGI (CAKI-1 renal) [µM]	TGI (RXF 393 renal) [µM]	TGI (LOX IMVI melanoma) [µM]	GI50 (HCT-116 colon) [µM]	GI50 (SF-268 CNS) [µM]	GI50 (UACC-62 melanoma) [µM]	GI50 (OVCAR-5 ovarian) [µM]	GI50 (COLO 205 colon) [µM]	GI50 (SK-OV-3 ovarian) [µM]	GI50 (HCT-15 colon) [µM]	GI50 (CAKI-1 renal) [µM]	GI50 (RXF 393 renal) [µM]	GI50 (LOX IMVI melanoma) [µM]
COc1cccc(C2c3cc4c(cc3OC(N3CCCC3)C2C)OCO4)c1O (stereo not given)	35	70.1	43.7	> 100	10.5	35.2	38.4	68.3	17.4	> 66.2										
N#C/C(=C1\SC(N=Nc2ccccc2)C(=O)N1c1ccccc1)c1nc2ccccc2[nH]1 (stereo not given)	> 100	> 100	> 100	> 100	> 100	> 100	> 100	> 100	97.6	> 100										
C=C(Nc1ccc([N+](=O)[O-])cc1[N+](=O)[O-])c1c/c(=N\NC(N)=S)c2ccccc2o1	> 100	> 100	> 100	> 100	> 100	> 100	> 100	> 100	> 100	> 100										
C=C1CCC2C(C)(COC(=O)CC)C(OC(=O)CC)CCC2(C)C1C/C=C1/C(=O)OCC1OC(=O)CC (stereo not given)	2.55	3.39	5.2	5.35	3.96	9.74	6	3.37	3.05	3.01	1.14	1.91	2.23	2.45	2.1	3.85	1.96	1.65	1.66	1.51
COc1ccccc1CNCCCN1C(=O)c2ccc3c4c(ccc(c24)C1=O)C(=O)N(CCCCNCCCN)C3=O	1.94	7.27	2.68	9.02	1.08	15.9	18.6	34.8	2.3	1.69	0.648	1.57	1.01	2.95	0.524	3.74	4.43	13.1	0.807	0.654
COc1cccc(NC(=O)c2sc3nc4c(cc3c2N)C(=O)CCC4)c1	> 100	> 100	> 100	> 100	2.15	> 78.1	> 100	> 100	1.51	> 100	0.0745	0.725	0.0749	0.635	0.0834	0.183	0.0686	0.882	0.084	1.71
Cc1cc(Cl)ccc1NC(=O)C(=O)C(C(=O)c1ccc2ccccc2c1)C1OC(=O)c2ccccc21 (stereo not given)	21.7	60.5	24	48.4	28.5	49.1	50.9	35.5	9.53	32.2										
